Structures can show the parent of a compound that is named as a salt.
Biological target: Factor D (Homo sapiens (Human), UniProt P00746)
Assay: biochemical
Assay type: biochemical
Conditions: read-out: IC50

Chain of Factor D (P00746 26-253): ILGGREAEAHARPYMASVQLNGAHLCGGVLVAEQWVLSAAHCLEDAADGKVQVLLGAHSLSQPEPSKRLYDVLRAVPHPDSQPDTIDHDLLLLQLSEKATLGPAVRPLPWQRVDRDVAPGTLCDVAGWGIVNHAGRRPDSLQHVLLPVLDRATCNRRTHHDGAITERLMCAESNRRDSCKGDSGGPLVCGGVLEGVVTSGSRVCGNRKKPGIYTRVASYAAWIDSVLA

Row | SMILES | IC50 [nM]
1 | COC(=O)c1ccc2c(C(C)=O)nn(CC(=O)N3[C@@H]4C[C@@H]4C[C@H]3C(=O)NCc3cccc(Cl)c3F)c2c1 [Example 632, 3-Acetyl-1-{2-[(1R,3S,5R)-3-(3-chloro-2-fluoro-benzylcarbamoyl)-2-aza-bicyclo [3.1.0]hex-2-yl]-2-oxo-ethyl}-1H-indazole-6-carboxylic acid methyl ester] | 18
2 | CC(=O)c1nn(CC(=O)N2[C@@H]3C[C@@H]3C[C@H]2C(=O)NC2(c3cccc(Cl)c3F)COC2)c2ncccc12 [Example 633, (1R,3S,5R)-2-[2-(3-Acetyl-pyrazolo[3,4-b]pyridin-1-yl)-acetyl]-2-aza-bicyclo [3.1.0]hexane-3-carboxylic acid [3-(3-chloro-2-fluoro-phenyl)-oxetan-3-yl]-amide] | 55
3 | CC(=O)c1cn(CC(=O)N2C[C@H](F)[C@@H](OCCN(C)C)[C@H]2C(=O)NCc2cccc(Cl)c2F)c2ccccc12 [Example 634, (2S,3S,4S)-1-[2-(3-Acetyl-indol-1-yl)-acetyl]-3-(2-dimethylamino-ethoxy)-4-fluoro-pyrrolidine-2-carboxylic acid 3-chloro-2-fluoro-benzylamide formate] | 53
4 | CC(=O)c1nn(CC(=O)N2C[C@H](F)[C@@H](O)[C@H]2C(=O)NC2(c3cccc(Cl)c3F)CC2)c2cnccc12 [Example 635, (2S,3S,4S)-1-[2-(3-Acetyl-pyrazolo[3,4-c]pyridin-1-yl)-acetyl]-4-fluoro-3-hydroxy-pyrrolidine-2-carboxylic acid [1-(3-chloro-2-fluoro-phenyl)-cyclopropyl]-amide formate] | 18
5 | CO[C@H]1[C@@H](C(=O)Nc2cccc(OC(F)(F)F)c2F)N(C(=O)Cn2nc(C(N)=O)c3cc(C)ncc32)C[C@@H]1F [Example 636, 1-{2-[(2S,3S,4S)-4-Fluoro-2-(2-fluoro-3-trifluoromethoxy-phenylcarbamoyl)-3-methoxy-pyrrolidin-1-yl]-2-oxo-ethyl}-5-methyl-1H-pyrazolo[3,4-c]pyridine-3-carboxylic acid amide triflate] | 13
6 | CCc1cc2c(C(N)=O)nn(CC(=O)N3C[C@H](F)[C@@H](OC)[C@H]3C(=O)Nc3cccc(OC(F)(F)F)c3F)c2cn1 [Example 637, 5-Ethyl-1-{2-[(2S,3S,4S)-4-fluoro-2-(2-fluoro-3-trifluoromethoxy-phenylcarbamoyl)-3-methoxy-pyrrolidin-1-yl]-2-oxo-ethyl}-1H-pyrazolo[3,4-c]pyridine-3-carboxylic acid amide triflate] | 9
7 | CO[C@H]1[C@@H](C(=O)Nc2cccc(OC(F)(F)F)c2F)N(C(=O)Cn2nc(C(C)=O)c3cc(OCc4ncccn4)ccc32)C[C@@H]1F [Example 638, (2S,3S,4S)-1-{2-[3-Acetyl-5-(pyrimidin-2-ylmethoxy)-indazol-1-yl]-acetyl}-4-fluoro-3-methoxy-pyrrolidine-2-carboxylic acid (2-fluoro-3-trifluoromethoxy-phenyl)-amide] | 5
8 | CC(=O)c1nn(CC(=O)N2[C@@H]3C[C@@H]3C[C@H]2C(=O)NCc2cccc(Cl)c2F)c2cc(C(=O)O)ccc12 [Example 639, 3-Acetyl-1-{2-[(1R,3S,5R)-3-(3-chloro-2-fluoro-benzylcarbamoyl)-2-aza-bicyclo[3.1.0]hex-2-yl]-2-oxo-ethyl}-1H-indazole-6-carboxylic acid] | 62
9 | CO[C@H]1[C@@H](C(=O)NCc2cccc(Cl)c2F)N(C(=O)Cn2nc(C(C)=O)c3ccc(C(=O)O)cc32)C[C@@H]1F [Example 640, 3-Acetyl-1-{2-[(2S,3S,4S)-2-(3-chloro-2-fluoro-benzylcarbamoyl)-4-fluoro-3-methoxy-pyrrolidin-1-yl]-2-oxo-ethyl}-1H-indazole-6-carboxylic acid] | 8
10 | CC(=O)c1cn(CC(=O)N2[C@@H]3C[C@@H]3C[C@H]2C(=O)N[C@H](C)c2cccc(Cl)c2F)c2cnccc12 [Example 641, (1R,3S,5R)-2-[2-(3-Acetyl-pyrrolo[2,3-c]pyridin-1-yl)-acetyl]-2-aza-bicyclo[3.1.0]hexane-3-carboxylic acid [(R)-1-(3-chloro-2-fluoro-phenyl)-ethyl]-amide] | 32
11 | CC(=O)c1nn(CC(=O)N2[C@@H]3C[C@@H]3C[C@H]2C(=O)N[C@H](CCN(C)C)c2cccc(Cl)c2F)c2ccccc12 [Example 642, (1R,3S,5R)-2-[2-(3-Acetyl-indazol-1-yl)-acetyl]-2-aza-bicyclo[3.1.0]hexane-3-carboxylic acid [(R)-1-(3-chloro-2-fluoro-phenyl)-3-dimethylamino-propyl]-amide] | 15
12 | CO[C@H]1[C@@H](C(=O)N[C@H](C)c2cccc(Cl)c2F)N(C(=O)Cn2nc(C(N)=O)c3cccnc32)C[C@@H]1F [Example 643, 1-(2-{(2S,3S,4S)-2-[(R)-1-(3-Chloro-2-fluoro-phenyl)-ethylcarbamoyl]-4-fluoro-3-methoxy-pyrrolidin-1-yl}-2-oxo-ethyl)-1H-pyrazolo[3,4-b]pyridine-3-carboxylic acid amide] | 25
13 | CC(=O)c1nc(CC(=O)N2[C@@H]3C[C@@H]3C[C@H]2C(=O)N[C@H](CO)c2cccc(Cl)c2F)n2ccccc12 [Example 644, (1R,3S,5R)-2-[2-(1-Acetyl-imidazo[1,5-a]pyridin-3-yl)-acetyl]-2-aza-bicyclo [3.1.0]hexane-3-carboxylic acid [(S)-1-(3-chloro-2-fluoro-phenyl)-2-hydroxy-ethyl]-amide] | 79
14 | CCC(=O)c1cn(CC(=O)N2[C@@H]3C[C@@H]3C[C@H]2C(=O)NCc2cccc(Cl)c2F)c2cnccc12 [Example 645, (1R,3S,5R)-2-[2-(3-Propionyl-pyrrolo[2,3-c]pyridin-1-yl)-acetyl]-2-aza-bicyclo [3.1.0]hexane-3-carboxylic acid 3-chloro-2-fluoro-benzylamide] | 132
15 | CC(=O)c1cn(CC(=O)N2[C@@H]3C[C@@H]3C[C@H]2C(=O)NCc2cccc(Cl)c2F)c2cnc(C)cc12 [Example 646, (1R,3S,5R)-2-[2-(3-Acetyl-5-methyl-pyrrolo[2,3-c]pyridin-1-yl)-acetyl]-2-aza-bicyclo [3.1.0]hexane-3-carboxylic acid 3-chloro-2-fluoro-benzylamide] | 12
16 | COc1cc2c(C(C)=O)nn(CC(=O)N3[C@@H]4C[C@@H]4C[C@H]3C(=O)NCc3cccc(Cl)c3F)c2cc1OC [Example 647, (1R,3S,5R)-2-[2-(3-Acetyl-5,6-dimethoxy-indazol-1-yl)-acetyl]-2-aza-bicyclo [3.1.0]hexane-3-carboxylic acid 3-chloro-2-fluoro-benzylamide] | 16
17 | CC(=O)c1cn(CC(=O)N2[C@@H]3C[C@@H]3C[C@H]2C(=O)NCc2cccc(Cl)c2F)c2ncncc12 [Example 649, (1R,3S,5R)-2-[2-(5-Acetyl-pyrrolo[2,3-d]pyrimidin-7-yl)-acetyl]-2-aza-bicyclo [3.1.0]hexane-3-carboxylic acid 3-chloro-2-fluoro-benzylamide] | 441
18 | NC(=O)c1nn(CC(=O)N2[C@@H]3C[C@@H]3C[C@H]2C(=O)NCc2cccc(Cl)c2F)c2ccncc12 [Example 650, 1-{2-[(1R,3S,5R)-3-(3-Chloro-2-fluoro-benzylcarbamoyl)-2-aza-bicyclo[3.1.0]hex-2-yl]-2-oxo-ethyl}-1H-pyrazolo[4,3-c]pyridine-3-carboxylic acid amide] | 22

From US9085555B2, “Complement pathway modulators and uses thereof” (priority 2011, dated 2015)
